Results: US20140163082A1, “PYRAZOLYL COMPOUNDS FOR USE IN REVERSING REACTIVE GLIOSIS” (priority 2011, published 2014)

Columns and labels:
ischemic retinas [1] = test: Immunohistochemical analysis, in vivo (OIR retinas); design: species or system C57BL/6J mice; conditions: OIR mice, vs DMSO-treated retinas
Description: (§1) Retinal NV was induced in newborn mice as described previously. Briefly, P7 mice were exposed with their nursing mother, for 5 days [between P7 and P12] to hyperoxic conditions, by incubating them in an airtight chamber [PROOX 110 chamber O2 controller; Biospherix Ltd., Redfield, N.Y.] ventilated by a mixture of O2 and air to a final oxygen fraction of 75±2%. These incubation conditions induced vaso-obliteration and subsequent cessation of vascular development in the capillary beds of the central retina. At P12, the mice were allowed to recover in normal room air conditions and maintained for another 5 days [till P17], the day in which peak disease occurs. A condition of relative hypoxia resulted between P12 and P17, and extensive retinal NV developed in 100% of the mice. Age-matched animals with the hyperoxia-exposed groups were maintained identically, except they were exposed to room air […], 79% N2] for the entire duration of the experiment. All animals were examined and sacrificed on the same days.
(§2) A group of hyperoxia-exposed animals [n=15] were injected intravitreally [into both eyes] at P12 and P15 with 3 μl of YC-1 [100 μM] [drug-treated group]. Another group of hyperoxiaexposed mice [n=15] were injected intravitreally [into both eyes] at P12 and P15 with 3 μl of DMSO [0.2% [v/v]] [mock-treated group]. Non-treated mice grown under ambient conditions, non-treated hyperoxia-exposed mice, DMSO-treated hyperoxia-exposed mice and YC-1-treated hyperoxia-exposed mice, were all examined at different critical time points for qualitative assessment of the retinal vasculature by fluorescein angiography.
Mouse retinas were dissected and prepared for immunohistochemical analysis, fixed in 4% paraformaldehyde in 0.1 M PBS for 15 min at room temperature and embedded in paraffin, sectioned [5 μm]. Tissue sections were deparaffinized, hydrated, and later exposed to heat induced antigen retrieval using a microwave oven [three 5-minute cycles in citrate buffer, pH 6.0], endogenous peroxidase was abolished with methanol, and hydrogen peroxide and nonspecific background staining was blocked by incubating the tissue sections for 5 minutes in normal swine serum. Subsequently, all slides were washed three times in PBS, and incubated for 1 hour with primary anti-[HIF-1α, VEGF, PDGF-B, GFAP, iNOS, and β-actin] antibodies. The sections were washed with TBST and incubated with EnVision Polymer HRP secondary antibody [DAKO, Carpinteria, Calif.] for 30 minutes. All slides were stained with DAB solution and counterstained with hematoxylin. Slides were cover slipped [Permount; Fisher Scientific, Fairlawn, N.J.] and examined by light microscopy. Negative controls were performed by omitting the primary antibodies. Sections were photographed under a microscope [Zeiss Axiovert 135, Thornwood, N.Y.], and images were acquired a digital camera [AxioCam, N.Y.]. All retinas were examined at X60 objective. The staining intensity in our series ranged from a weak blush to moderate or strong. The amount of cells staining with the antibody was further categorized as focal [<10%], patchy [10%-50%], and diffuse [>50%]. For meaningful semiquantitative analysis, focal and/or weak staining was considered equivocal staining, and patchy or diffuse staining was either subcategorized as either moderate or strong staining. All Immunohistochemical analyses were measured by Metamorph digital image software [Molecular Devices, Sunnyvale, Calif.].

ischemic retinas [2] = test: Real time RT-PCR analysis, in vivo (OIR retinas); design: species or system C57BL/6J mice; conditions: OIR mice
Excerpt: mRNA levels for HIF-1, VEGF, PDGF-B, GFAP and iNOS were quantified by Real time RTPCR. We used the primers summarized in [FIG. 6C] for RT-PCR. Gene-specific molecular beacons and primers were designed to encompass the genes of interest, with beacon's annealing site to overlap with the exon-exon junctions for additional specificity [Beacon Designer 6.0, Premier Biosoft International, Palo Alto, Calif., USA]. Threshold cycle [Ct] values for the different samples were utilized for the calculation of gene expression fold change using the formula 2 to the minus power of delta delta ct. Fold changes in the HIF-1, VEGF, PDGF-B, GFAP and iNOS gene relative to the β-actin endogenous control gene were determined by the following equation: fold change=2−Δ[ΔC T], where change in threshold cycle [ΔCT]=CT [gene of interest]−CT [β-actin] and Δ [ΔCT]=ΔCT [treated]−ΔCT [untreated].
as §1, §2

[3] = system: ischemic retinas of the OIR mouse model; conditions: refs [16, 18]; cited from earlier work
endothelial tip cells = test: Filopodia number and length on endothelial tip cells, OIR mouse model; format: in vivo, C57BL/6J mice; conditions: OIR mice injected with YC-1 [25-100 μl], vs DMSO-treated retinas
Description: FIG. 4 the Influence of YC-1 on filopodia number and length. […] Image of tip cells along the leading edge of vascularization from; [A] Non-treated ischemic retinas; [B] DMSO-treated retinas; [C, D, E, and F] represent retinas from animals that were injected with YC-1 [25-100 μl]. Filopodia lengths and number/tip cell were not influenced by DMSO treatment. […] [n=5 per group].
A. Filopodia from DMSO-treated retinas had approximately similar lengths as the nontreated ischemic retinas. […] [ANOVA, ***P<0.001; **P<0.01 between YC-1 and DMSO]. There were 24 tip cells/retina that were averaged. [n=5 per group].
B. DMSO has no influence on the number of filopodia/tip cell. […] [ANOVA, ***P<0.001; **P<0.01 between YC-1 and DMSO]. There were 24 tip cells/retina that were averaged. [n=5 per group].
Retinal NV was induced in newborn mice as described previously. Briefly, P7 mice were exposed with their nursing mother, for 5 days [between P7 and P12] to hyperoxic conditions, by incubating them in an airtight chamber [PROOX 110 chamber O2 controller; Biospherix Ltd., Redfield, N.Y.] ventilated by a mixture of O2 and air to a final oxygen fraction of 75±2%. These incubation conditions induced vaso-obliteration and subsequent cessation of vascular development in the capillary beds of the central retina. […]

macrophages = macrophages stimulated by lipoteichoic acid in vitro, ref [31]; cited from earlier work
[4] = 100 μM YC-1, vs DMSO-treated retinas

OCc1ccc(-c2nn(Cc3ccccc3)c3ccccc23)o1 [YC-1, 3-(5′-hydroxymethyl-2′-furyl)-1-benzylindazole]
GFAP immunoexpression in retina (ischemic retinas [1]): significant down-regulation
HIF-1 immunoexpression in retina (ischemic retinas [1]): significant inhibition
PDGF-B immunoreactivity in retina (ischemic retinas [1]): significantly inhibited
VEGF immunoexpression in retina (ischemic retinas [1]): significant inhibition
iNOS immunoreactivities in retina (ischemic retinas [1]): significantly down-regulated
PDGF-B message (mRNA) level in retina (ischemic retinas [2]; [4]): significantly attenuated
VEGF message (mRNA) level in retina (ischemic retinas [2]; [4]): significantly attenuated
iNOS message (mRNA) level in retina (ischemic retinas [2]; [4]): significantly attenuated
HIF-1α message (mRNA) level in retinal tissue (ischemic retinas [2]; YC-1): did not have any influence
GFAP message (mRNA) level in retina (ischemic retinas [2]; YC-1 dual injection, vs DMSO, normalized to β-actin): significantly attenuated
HIF-1 and other proangiogenic factors [VEGF, MMP-9, ET-1, and EPO] [3]: inhibits
number of filopodia on endothelial tip cells (endothelial tip cells): significantly and dose-dependently reduced
total length of filopodia on endothelial tip cells (endothelial tip cells): significantly and dose-dependently reduced
expression of iNOS (macrophages): potent activity at abrogating the expression of iNOS
